What was measured:
[1] = system: Amaranthus palmeri cytosolic GS1.1 Y158A; assay: GS enzyme inhibition assay, GS1.1 Y158A; type: biochemical
Procedure: (§1) GS activity was determined spectrophotometrically following the Sigma‐Aldrich enzymatic assay protocol. The reaction couples the ATP‐dependent conversion of L‐glutamate and ammonium to L‐glutamine with pyruvate kinase (PK) and L‐lactate dehydrogenase (LDH), such that oxidation of β‐NADH to β‐NAD^+ can be monitored at 340 nm. Recombinant GS from A. palmeri was expressed in E. coli, purified by affinity chromatography, and quantified by the Bradford method using bovine serum albumin as standard. […] Reaction mixtures were equilibrated to 37°C and initiated by the addition of enzyme, and the decrease in absorbance at 340 nm was recorded for 5–10 min; only the linear portion of the curve was used for activity calculations. […] Activity was calculated using an extinction coefficient for NADH of 6.22 mM^−1 cm^−1 and expressed as units per mg protein, where one unit corresponds to the formation of 1 μmol of L‐glutamine in […] at pH 7.1 and 37 °C. […] Percent inhibition was calculated relative to untreated (positive) and no‐enzyme (negative) controls. […] Resistance factors were calculated by dividing the IC₅₀ of each mutant variant by that of wild‐type GS.

[2] = system: Amaranthus palmeri cytosolic GS1.1 G245S; assay: GS enzyme inhibition assay, GS1.1 G245S; type: biochemical
Procedure: as §1

[3] = system: Amaranthus palmeri cytosolic GS1.1 G245C; assay: GS enzyme inhibition assay, GS1.1 G245C; type: biochemical
Procedure: as §1

[4] = system: Amaranthus palmeri cytosolic GS1.1 R291H; assay: GS enzyme inhibition assay, GS1.1 R291H; type: biochemical
Procedure: as §1

[5] = system: Amaranthus palmeri cytosolic GS1.1 R291G; assay: GS enzyme inhibition assay, GS1.1 R291G; type: biochemical
Procedure: as §1

[6] = system: Amaranthus palmeri cytosolic GS1.1 S59N; assay: GS enzyme inhibition assay, GS1.1 S59N; type: biochemical
Procedure: as §1

[7] = system: Amaranthus palmeri cytosolic GS1.1 R311L; assay: GS enzyme inhibition assay, GS1.1 R311L; type: biochemical
Procedure: as §1

[8] = system: Arabidopsis thaliana plants expressing Amaranthus palmeri GS2.2 G255D; assay: Postemergence GFA spray on transgenic Arabidopsis expressing GS2.2 G255D; type: in vivo; details: 100, 500 and 1000 g ha^−1 postemergence, listed as GFA
Source text: Mutant GS variants G2.2 G255D from A. palmeri and G254D from Arabidopsis were cloned into the RTP6557 transformation vector, which was subsequently introduced into Agrobacterium tumefaciens strain C58C1pMP90. The construct also carried an acetolactate synthase (ALS) herbicide‐resistance gene as a selectable marker, ensuring that Arabidopsis seedlings tested for resistance to GFA herbicide expressed the transgene.
Arabidopsis plants carrying immature floral buds were transformed by the floral‐dip method, immersing inflorescences for 10 s in the bacterial suspension supplemented with Silwet‐L77 at 0.05% v/v. After dipping, plants were maintained overnight under high humidity and low light, then transferred to long‐day conditions until maturity. Once siliques had yellowed, seeds were harvested into paper bags. T₁ seeds were collected, placed into Falcon tubes, and stored at 4 °C.
After ≥14 d of cold storage, T₁ seeds were sown and stratified as previously described. Transgenic plants were confirmed by PCR detection of the AHAS resistance marker gene. […]
Herbicide treatments were applied at the 10‐leaf stage using a spray chamber calibrated to deliver 375 L ha^−1 of spray solution. […] Herbicide efficacy was visually evaluated 7 d after application.

[9] = system: Amaranthus palmeri cytosolic GS1.1 E131A; assay: GS enzyme inhibition assay, GS1.1 E131A; type: biochemical
Procedure: as §1

[10] = system: Amaranthus palmeri cytosolic GS1.1 E131V; assay: GS enzyme inhibition assay, GS1.1 E131V; type: biochemical
Procedure: as §1

[11] = system: Amaranthus palmeri cytosolic GS1.1 V161N; assay: GS enzyme inhibition assay, GS1.1 V161N; type: biochemical
Procedure: as §1

[12] = system: Amaranthus palmeri cytosolic GS1.1 A309Y; assay: GS enzyme inhibition assay, GS1.1 A309Y; type: biochemical
Procedure: as §1

[13] = system: Amaranthus palmeri cytosolic GS1.1 D56C; assay: GS enzyme inhibition assay, GS1.1 D56C; type: biochemical
Procedure: as §1

[14] = system: Amaranthus palmeri cytosolic GS1.1 R38E; assay: GS enzyme inhibition assay, GS1.1 R38E; type: biochemical
Procedure: as §1

[15] = system: Amaranthus palmeri cytosolic GS1.1 R291L; assay: GS enzyme inhibition assay, GS1.1 R291L; type: biochemical
Procedure: as §1

[16] = system: Amaranthus palmeri cytosolic GS1.1 V193T; assay: GS enzyme inhibition assay, GS1.1 V193T; type: biochemical
Procedure: as §1

[17] = system: Amaranthus palmeri cytosolic GS1.1 G160T; assay: GS enzyme inhibition assay, GS1.1 G160T; type: biochemical
Procedure: as §1

[18] = system: Amaranthus palmeri cytosolic GS1.1 R291P; assay: GS enzyme inhibition assay, GS1.1 R291P; type: biochemical
Procedure: as §1

[19] = system: Amaranthus palmeri cytosolic GS1.1 E297A; assay: GS enzyme inhibition assay, GS1.1 E297A; type: biochemical
Procedure: as §1

[20] = system: Amaranthus palmeri cytosolic GS1.1 E192D; assay: GS enzyme inhibition assay, GS1.1 E192D; type: biochemical
Procedure: as §1

[21] = read-out: Glufosinate‐ammonium IC50

## CP(=O)(O)CCC(N)C(=O)O (stereo not drawn) [Glufosinate‐ammonium]
[1]; IC50 variant / IC50 WT
  Resistance index (RI): 64.6
[1]; [21]
  IC50: 1400 µM
[2]; 10 000 μM
  Glufosinate‐ammonium % Inhibition at saturation 10 000 μM: 9%
[2]; [21]
  IC50: > 10000 µM
[3]; 10 000 μM
  Glufosinate‐ammonium % Inhibition at saturation 10 000 μM: 0%
[3]; [21]
  IC50: > 10000 µM
[4]; 10 000 μM
  Glufosinate‐ammonium % Inhibition at saturation 10 000 μM: 0%
[4]; [21]
  IC50: > 10000 µM
[5]; 10 000 μM
  Glufosinate‐ammonium % Inhibition at saturation 10 000 μM: 0%
[5]; [21]
  IC50: > 10000 µM
[6]; IC50 variant / IC50 WT
  Resistance index (RI): 1.8
[6]; [21]
  IC50: 39.5 µM
[7]; 10 000 μM
  Glufosinate‐ammonium % Inhibition at saturation 10 000 μM: 14%
[7]; [21]
  IC50: > 10000 µM
[8]
  tolerance to GFA (visual injury): chlorosis and necrosis comparable to wild‐type controls
[9]; 10 000 μM
  Glufosinate‐ammonium % Inhibition at saturation 10 000 μM: 8.5%
[9]; [21]
  IC50: > 10000 µM
[10]; 10 000 μM
  Glufosinate‐ammonium % Inhibition at saturation 10 000 μM: 6.6%
[10]; [21]
  IC50: > 10000 µM
[11]; IC50 variant / IC50 WT
  Resistance index (RI): 3.0
[11]; [21]
  IC50: 64 µM
[12]; IC50 variant / IC50 WT
  Resistance index (RI): 799.7
[12]; read-out: Glufosinate‐ammonium IC50 (converted)
  IC50: 17400 µM
[13]; IC50 variant / IC50 WT
  Resistance index (RI): 0.2
[13]; [21]
  IC50: 3.9 µM
[14]; IC50 variant / IC50 WT
  Resistance index (RI): 0.2
[14]; [21]
  IC50: 4.8 µM
[15]; 10 000 μM
  Glufosinate‐ammonium % Inhibition at saturation 10 000 μM: 0%
[15]; [21]
  IC50: > 10000 µM
[16]; IC50 variant / IC50 WT
  Resistance index (RI): 3.2
[16]; [21]
  IC50: 69 µM
[17]; IC50 variant / IC50 WT
  Resistance index (RI): 18.7
[17]; [21]
  IC50: 405 µM
[18]; 10 000 μM
  Glufosinate‐ammonium % Inhibition at saturation 10 000 μM: 0%
[18]; [21]
  IC50: > 10000 µM
[19]; IC50 variant / IC50 WT
  Resistance index (RI): 0.3
[19]; [21]
  IC50: 6.9 µM
[20]; 10 000 μM
  Glufosinate‐ammonium % Inhibition at saturation 10 000 μM: 0%
[20]; [21]
  IC50: > 10000 µM

Source: paper PMC13352219, “Analysis of glutamine synthetase target‐site mutations and their role in endowing glufosinate‐ammonium resistance” (Pest Management Science, 2026)
